Source: US7973033B2, “Multi-cyclic cinnamide derivatives” (Eisai R&D Management Co., Ltd., priority 2006, dated 2011)

test system: Aβ 42 production; assay: Quantification of Aβ Peptide in Culture of Neurons from Rat Fetus Brain; format: cell-based; details: Neuron, 72 h; rat primary neuronal culture (cerebral cortex, embryonic day 18 Wistar rats); medium collected three days after addition of the compound; Aβ ELISA; read-out: Effect of reducing Aβ 42 production IC50
Procedure: Quantification of Aβ Peptide in Culture of Neurons from Rat Fetus Brain
(1) Rat Primary Neuronal Culture
Primary neuronal cultures were prepared from the cerebral cortex of embryonic day 18 Wistar rats (Charles River Japan, Yokohama, Japan). Specifically, the embryos were aseptically removed from pregnant rats under ether anesthesia. The brain was isolated from the embryo and immersed in an ice-cold L-15 medium (Invitrogen Corp. Cat #11415-064, Carlsbad, Calif., USA, or SIGMA L1518, for example). The cerebral cortex was collected from the isolated brain under a stereoscopic microscope. The cerebral cortex fragments collected were enzymatically treated in an enzyme solution containing 0.25% trypsin (Invitrogen Corp. Cat #15050-065, Carlsbad, Calif., USA) and 0.01% DNase (Sigma D5025, St. Louis, Mo., USA) at 37° C. for 30 minutes to disperse the cells. Here, the enzymatic reaction was stopped by adding inactivated horse serum to the solution. The enzymatically treated solution was centrifuged at 1,500 rpm for five minutes to remove the supernatant. 5 to 10 ml of a medium was added to the resulting cell mass. Neurobasal medium (Invitrogen Corp. Cat #21103-049, Carlsbad, Calif., USA) supplemented with 2% B27 supplement (Invitrogen Corp. Cat #17504-044, Carlsbad, Calif., USA), 25 μM 2-mercaptoethanol (2-ME, WAKO Cat #139-06861, Osaka, Japan), 0.5 mM L-glutamine (Invitrogen Corp. Cat #25030-081, Carlsbad, Calif., USA), and Antibiotics-Antimycotics (Invitrogen Corp. Cat #15240-062, Carlsbad, Calif., USA) was used as the medium (Neurobasal/B27/2-ME). However, the above Neurobasal medium not supplemented with 2-ME (Neurobasal/B27) was used for the assay. The cells were redispersed by mild pipetting of the cell mass to which the medium was added. The cell dispersion was filtered through a 40-μm nylon mesh (Cell Strainer, Cat #35-2340, Becton Dickinson Labware, Franklin Lakes, N.J., USA) to remove the remaining cell mass, and thus a neuronal cell suspension was obtained. The neuronal cell suspension was diluted with the medium and then plated in a volume of 100 μl/well at an initial cell density of 5×10^5 cells/cm^2 in a 96-well polystyrene culture plate pre-coated with poly-L or D-lysine (Falcon Cat #35-3075, Becton Dickinson Labware, Franklin Lakes, N.J., USA coated with poly-L-lysine using the method shown below, or BIOCOAT™ cell environments Poly-D-lysine cell ware 96-well plate, Cat #35-6461, Becton Dickinson Labware, Franklin Lakes, N.J., USA). Poly-L-lysine coating was carried out as follows. 100 μg/ml of a poly-L-lysine (SIGMA P2636, St. Louis, Mo., USA) solution was aseptically prepared with a 0.15 M borate buffer (pH 8.5). 100 μl/well of the solution was added to the 96-well polystyrene culture plate and incubated at room temperature for one or more hours or at 4° C. overnight or longer. The coated 96-well polystyrene culture plate was washed with sterile water four or more times, and then dried or rinsed with, for example, sterile PBS or medium, and used for cell plating. The plated cells were cultured in the culture plate at 37° C. in 5% CO2-95% air for one day. Then, the total amount of the medium was replaced with a fresh Neurobasal™/B27/2-ME medium, and then the cells were cultured for further three days.
The drug was added to the culture plate on Day 4 of culture as follows. The total amount of the medium was removed from the wells, and 180 μl/well of Neurobasal medium not containing 2-ME and containing 2% B-27 (Neurobasal/B27) was added thereto. A solution of the test compound in dimethyl sulfoxide (hereinafter abbreviated as DMSO) was diluted with Neurobasal/B27 at 10-fold of the final concentration. 20 μl/well of the dilution was added to and sufficiently mixed with the medium. The final DMSO concentration was 1% or less. Only DMSO was added to the control group.
The cells were cultured for three days after addition of the compound, and the total amount of the medium was collected. […]

Q: How did the IC50 turn out when `COc1cc(/C=C/c2nc3n(n2)CCC[C@H]3c2ccccc2Br)ccc1-n1cnc(C)c1` (single isomer, unassigned) [Example 174, (−)-8-(2-bromophenyl)-2-{(E)-2-[3-methoxy-4-(4-methyl-1H-imidazol-1-yl)phenyl]vinyl}-5,6,7,8-tetrahydro[1,2,4]triazolo[1,5-a]pyridine] was run?
A: 23 nM

Q: With `COc1cc(/C=C/c2nnc(Cc3ccc(F)cc3)[nH]2)ccc1-n1cnc(C)c1` [Example 17, 3-(4-fluorobenzyl)-5-{(E)-2-[3-methoxy-4-(4-methyl-1H-imidazol-1-yl)phenyl]vinyl}-4H-[1,2,4]triazole] as the molecule, how does the IC50 read?
A: 58 nM

Q: For `COc1cc(/C=C/c2nc3n(n2)CCCC3c2cccc3ccccc23)ccc1-n1cnc(C)c1` (single isomer, unassigned) [Example 130, (+)-2-{(E)-2-[3-methoxy-4-(4-methyl-1H-imidazol-1-yl)phenyl]vinyl}-8-naphthalen-1-yl-5,6,7,8-tetrahydro[1,2,4]triazolo[1,5-a]pyridine], which IC50 is on record?
A: 13 nM

Q: For `COc1cc(/C=C(\F)c2nc3n(n2)CCC[C@@H]3c2cc(F)c(F)c(F)c2)ccc1-n1cnc(C)c1` (single isomer, unassigned) [Example 58, (−)-2-{(Z)-1-fluoro-2-[3-methoxy-4-(4-methyl-1H-imidazol-1-yl)phenyl]vinyl}-8-(3,4,5-trifluorophenyl)-5,6,7,8-tetrahydro[1,2,4]triazolo[1,5-a]pyridine], which IC50 is on record?
A: 39 nM

Q: Which IC50 does the source give for `COc1cc(/C=C/c2nc3n(n2)CCCC3c2ccc(F)cc2)ccc1-n1cnc(C)c1` (single isomer, unassigned) [Example 52, (−)-8-(4-fluorophenyl)-2-{(E)-2-[3-methoxy-4-(4-methyl-1H-imidazol-1-yl)phenyl]vinyl}-5,6,7,8-tetrahydro[1,2,4]triazolo[1,5-a]pyridine] here?
A: 14 nM

Q: How did the IC50 turn out when `COc1cc(/C=C/c2nc3n(n2)CCC[C@@]3(O)c2cccc3ccccc23)ccc1-n1cnc(C)c1` (single isomer, unassigned) [Example 136, (−)-2-{(E)-2-[3-methoxy-4-(4-methyl-1H-imidazol-1-yl)phenyl]vinyl}-8-naphthalen-1-yl-5,6,7,8-tetrahydro[1,2,4]triazolo[1,5-a]pyridin-8-ol] was run?
A: 24 nM

Q: `COc1cc(/C=C/c2nc3n(n2)CCO[C@H]3c2ccc(C)cc2)ccc1-n1cnc(C)c1` (single isomer, unassigned) [Example 138, (−)-2-{(E)-2-[3-methoxy-4-(4-methyl-1H-imidazol-1-yl)phenyl]vinyl}-8-p-tolyl-5,6-dihydro-8H-[1,2,4]triazolo[5,1-c][1,4]oxazine] was tested. Which IC50 did it give?
A: 47 nM

Q: Which IC50 does the source give for `Cc1cn(-c2ccc(/C=C/c3nc4n(n3)CCCC4c3cc(F)c(F)c(F)c3)cc2F)cn1` (single isomer, unassigned) [Example 62, (−)-2-{(E)-2-[3-fluoro-4-(4-methyl-1H-imidazol-1-yl)phenyl]vinyl}-8-(3,4,5-trifluorophenyl)-5,6,7,8-tetrahydro[1,2,4]triazolo[1,5-a]pyridine] here?
A: 23 nM

Q: `COc1ccc([C@@H]2CCCn3nc(/C=C/c4ccc(-n5cnc(C)c5)c(OC)c4)nc32)cc1` (single isomer, unassigned) [Example 75, (−)-2-{(E)-2-[3-methoxy-4-(4-methyl-1H-imidazol-1-yl)phenyl]vinyl}-8-(4-methoxyphenyl)-5,6,7,8-tetrahydro-[1,2,4]triazolo[1,5-a]pyridine] was tested. Which IC50 did it give?
A: 45 nM

Q: Which IC50 does the source give for `COc1cc(/C=C/c2nnc(C(C)c3ccc(F)cc3)[nH]2)ccc1-n1cnc(C)c1` (single isomer, unassigned) [Example 36, (+)-3-[1-(4-fluorophenyl)ethyl]-5-{(E)-2-[3-methoxy-4-(4-methyl-1H-imidazol-1-yl)phenyl]vinyl}-4H-[1,2,4]triazole] here?
A: 34 nM

Q: With `COc1cc(/C=C/c2nc(-c3ccc(F)cc3)c3n2CCOC3)ccc1-n1cnc(C)c1` [Example 13, 1-(4-fluorophenyl)-3-{(E)-2-[3-methoxy-4-(4-methyl-1H-imidazol-1-yl)phenyl]vinyl}-5,6-dihydro-8H-imidazo[5,1-c][1,4]oxazine] as the molecule, how does the IC50 read?
A: 170 nM

Q: How did the IC50 turn out when `COc1cc(/C=C/c2nc(-c3ccc(F)cc3)c[nH]2)ccc1-n1cnc(C)c1` [Example 1, 4-(4-fluorophenyl)-2-{(E)-2-[3-methoxy-4-(4-methyl-1H-imidazol-1-yl)phenyl]vinyl}-1H-imidazole] was run?
A: 45 nM

Q: With `COc1cc(/C=C2\CCCn3c2nc(CO)c3-c2ccc(F)cc2)ccc1-n1cnc(C)c1` [Example 23, {3-(4-fluorophenyl)-8-{1-[3-methoxy-4-(4-methyl-1H-imidazol-1-yl)phenyl]-(E)-methylidene}-5,6,7,8-tetrahydroimidazo[1,2-a]pyridin-2-yl}methanol] as the molecule, how does the IC50 read?
A: 60 nM

Q: With `COc1cc(/C=C/c2nc3n(n2)CCCC3(O)c2ccc(Cl)cc2)ccc1-n1cnc(C)c1` (single isomer, unassigned) [Example 153, (−)-8-(4-chlorophenyl)-2-{(E)-2-[3-methoxy-4-(4-methyl-1H-imidazol-1-yl)phenyl]vinyl}-5,6,7,8-tetrahydro[1,2,4]triazolo[1,5-a]pyridin-8-ol] as the molecule, how does the IC50 read?
A: 31 nM

Q: With `COc1cc(/C=C/c2nc3n(n2)CCC[C@@H]3c2cc(F)c(F)c(F)c2)c(F)cc1-n1cnc(C)c1` (single isomer, unassigned) [Example 69, (−)-2-{(E)-2-[2-fluoro-5-methoxy-4-(4-methyl-1H-imidazol-1-yl)phenyl]vinyl}-8-(3,4,5-trifluorophenyl)-5,6,7,8-tetrahydro[1,2,4]triazolo[1,5-a]pyridine] as the molecule, how does the IC50 read?
A: 74 nM

Q: For `COc1cc(/C=C/c2nnc(CCc3ccc(F)cc3)[nH]2)ccc1-n1cnc(C)c1` [Example 32, 3-[2-(4-fluorophenyl)ethyl]-5-{(E)-2-[3-methoxy-4-(4-methyl-1H-imidazol-1-yl)phenyl]vinyl}-4H-[1,2,4]triazole], which IC50 is on record?
A: 62 nM

Q: With `COc1cc(/C=C/c2nc3n(n2)CCC[C@H]3c2ccccc2)ccc1-n1cnc(C)c1` (single isomer, unassigned) [Example 172, (−)-2-{(E)-2-[3-methoxy-4-(4-methyl-1H-imidazol-1-yl)phenyl]vinyl}-8-phenyl-5,6,7,8-tetrahydro[1,2,4]triazolo[1,5-a]pyridine] as the molecule, how does the IC50 read?
A: 11 nM

Q: Which IC50 does the source give for `COc1cc(/C=C/c2nc3n(n2)CCC3c2cc(F)c(F)c(F)c2)ccc1-n1cnc(C)c1` (single isomer, unassigned) [Example 113, (−)-2-{(E)-2-[3-methoxy-4-(4-methyl-1H-imidazol-1-yl)phenyl]vinyl}-7-(3,4,5-trifluorophenyl)-6,7-dihydro-5H-pyrrolo[1,2-b][1,2,4]triazole] here?
A: 32 nM

Q: With `COc1cc(/C=C/c2nc3n(n2)CCCC3c2cc(F)c(F)c(F)c2)cnc1-n1cnc(C)c1` (single isomer, unassigned) [Example 60, (−)-2-{(E)-2-[5-methoxy-6-(4-methyl-1H-imidazol-1-yl)pyridin-3-yl]vinyl}-8-(3,4,5-trifluorophenyl)-5,6,7,8-tetrahydro[1,2,4]triazolo[1,5-a]pyridine] as the molecule, how does the IC50 read?
A: 40 nM

Q: With `COc1cc(/C=C/c2nc(C(C)c3ccccc3)n(C)n2)ccc1-n1cnc(C)c1` (stereo not drawn) [Example 45, 3-{(E)-2-[3-methoxy-4-(4-methyl-1H-imidazol-1-yl)phenyl]vinyl}-1-methyl-5-(1-phenylethyl)-1H-[1,2,4]triazole] as the molecule, how does the IC50 read?
A: 85 nM

Q: For `COc1cc(/C=C/c2nc(-c3ccc(F)cc3)c3n2CCN(C)C3)ccc1-n1cnc(C)c1` [Example 15, 1-(4-fluorophenyl)-3-{(E)-2-[3-methoxy-4-(4-methyl-1H-imidazol-1-yl)phenyl]vinyl}-7-methyl-5,6,7,8-tetrahydroimidazo[1,5-a]pyrazine], which IC50 is on record?
A: 180 nM
